The subject of one test is MDA-MB-435 cells. In words: Enhancement of phage transduction by genotoxic agents or trans-complementation. It is filed as cell-based, human. The note with it: cells infected with targeted phage, 72 hours post-infection; drugs 10 μM. As for the experimental part:
Semi-confluent MDA-MB-435 cells were infected with 10^5 TU of phage per cell for 4 hours in serum free media, after which fresh medium supplemented with FCS was added (no phage were washed out or removed). In some experiments, a phage admixture of forward and reverse clones at 10^10 TU (forward/reverse molar ratio=1) was tested. Next, cells were incubated for 36 hours followed by the addition of genotoxic drugs (topotecan, 10 μM; cisplatin, 10 μM) or administration of UV radiation (15 J/m^2) with a cross-linker apparatus (UV Stratalinker Model 2400; Stratagene). At 72 hours post-infection, the cells were analyzed for transduction of a reporter gene (β-gal or GFP), and gene expression was normalized per cell number relative to controls.

A further test concerns prostate. In words: In vivo phage display in a human patient, tripeptide motif analysis. The note with it: motifs in peptides isolated from prostate, compared with unselected phage library. An excerpt:
A large-scale preparation of a CX7C (C, cysteine; X, any amino acid residue) phage display random peptide library was optimized to create the highest possible insert diversity (Pasqualini et al., 2000). The diversity of the library was about 2×10^8 and its final titer was about 10^12 transducing units (TU)/ml. For biopanning with human subjects, use of a large-scale phage display library (diversity about 2×10^8) is advantageous compared to the smaller scale libraries used in mouse studies. Short-term intravenous infusion of the phage library (a total dose of 10^14 phage TU suspended in 100 ml of saline) into the patient was followed by multiple representative tissue biopsies. Prostate and liver samples were obtained by needle biopsy under ultrasonographic guidance. Skin, fat tissue, and skeletal muscle samples were obtained by surgical excision. Bone marrow needle aspirates and core biopsies were also obtained. Histopathological diagnosis was determined by examination of frozen sections processed from tissues obtained at the bedside.
Triplicate samples were processed for host bacterial infection, phage recovery, and histopathological analysis. In brief, tissues were weighed, ground with a glass Dounce homogenizer, suspended in 1 ml of Dulbecco Modified Eagle's medium (DMEM) containing proteinase inhibitors (DMEM-prin; 1 mM PMSF, 20 μg/ml aprotinin, and 1 μg/ml leupeptin), vortexed, and washed three times with DMEM-prin. The human tissue homogenates were incubated with 1 ml of host bacteria (log phase E. coli K91kan; OD600˜2). Aliquots of the bacterial culture were plated onto Luria-Bertani agar plates containing 40 μg/ml tetracycline and 100 μg/ml of kanamycin. Plates were incubated overnight at 37° C. Bacterial colonies were processed for sequencing of phage inserts recovered from each tissue and from unselected phage library. Human samples were handled with universal blood and body fluid precautions.
A high-throughput character pattern recognition program (M.D. Anderson Cancer Center, Biostatistics, Houston, Tex.) was developed to automate the analysis of the peptide motifs derived from phage screenings. […]
In order to identify the motifs that were enriched in the screening, the count for each tripeptide motif within each tissue was compared with the count for that tripeptide motif within the unselected library. Starting from a CX7C peptide insert, counts were recorded for all overlapping interior tripeptide motifs, subject only to reflection and single-voting restrictions. […] The significance of association of a given allocation of counts was assessed by Fisher's exact test (one-tailed). […]

Test [1] concerns immunoglobulins from the serum of metastatic prostate cancer patients. In words: Biopanning of CX6C phage library on IgGs from serum of prostate cancer patients A, B, C. The note with it: second and third rounds; patient A, B or C that yielded the peptide. It is filed as binding, human. An excerpt:
Sera was selected from patients diagnosed with androgen-dependent and androgen-independent prostate cancer. A CX6C peptide library was screened against this pool of IgGs in a two-step procedure. First, the peptide library was pre-cleared against a pool of purified IgGs from normal serum samples using Protein G affinity chromatography. This step removed peptides from the phage display library that bound to immunoglobulins from patients without prostate cancer. Next, the pre-cleared peptide library was screened against the pool of purified IgGs from the serum of prostate cancer patients. This step selected peptides binding specifically to IgGs elicited against prostate cancer.
A 6-mer cyclic peptide (CX6C) phage display library was used for the biopanning. To select peptides specific to the serum antibodies of cancer patients, a pre-clearing stage was employed to remove non-specific peptides by pre-absorbing the peptide library onto purified IgGs from pooled normal serum (five healthy male individuals). The pre-cleared peptide library was screened onto the purified IgGs from the serum of prostate cancer patients. In brief, 10^9 transducing units (T.U.) of a CX6C cyclic peptide phage library were incubated with IgG antibodies from 50 μl of normal serum immobilized on 50 μl of protein G (Gibco BRL) for 1 hour at 4° C. This was followed by affinity selection on the immobilized IgG antibodies from prostate cancer patient serum for 2 hours at 4° C. Phage peptides specifically bound to IgGs elicited against prostate cancer were eluted with 100 μl of 0.1 M glycine buffer, pH 2.2, neutralized by the addition of 10 μl 1M Tris pH 9.0, and used to infect E. coli strain K91. Ten-fold serial dilutions of the infected solution were spread onto agar plates containing 40 μg/ml of tetracycline and grown overnight. Two hundred colonies were picked, amplified, and precipitated for a subsequent round of panning. A total of three rounds were performed. Individual phage clones were picked for PCR and the insert DNA was sequenced.

For test [2], the system named is serum antibodies of prostate cancer patients. In words: ELISA of serum reactivity against GST-fusion peptides. It is filed as binding, human. Here is the method: A 20 μg/ml solution of purified GST or GST-fusion proteins in 0.1M NaHCO3 was used to coat maxisorp multi-well plates (Nalge Nunc International Corporation) and incubated overnight at 4° C. The plates were blocked in a blocking buffer (4% milk, 2% casein, and 0.05% Tween-20) for 3-4 hours. A series of […] dilutions (1:100-1:1200) of sera from prostate cancer patients or healthy individuals was added and incubated for 1.5 hours and then washed five times with washing buffer (1% milk, 0.5% casein, and 0.025% Tween-20), followed by incubation at 4° C. with anti-human alkaline phosphatase-conjugated antibodies (Gibco). The plates were then washed six times in washing buffer and developed using p-NPP (Sigma) as a substrate. An automatic ELISA plate reader (BIO-TEK instrument) recorded the results at OD405 nm.
Probabilities of survival for each group were estimated using the Kaplan-Meier method. A log-rank test was implemented in order to detect significant differences between the groups. Reactivity was considered to be detected if the ratio between GST-peptide and GST alone was greater or equal to two by the ELISA data. A Log-Rank test was used to determine statistical differences between groups. A statistical CART analysis (Classification And Regression Tree) was used to identify the best cut-off point for determining reactivity to GRP78. In this method, the censored survival data were transformed into a single uncensored data value (the so-called “null martingale residual”), which was used as input into a standard regression tree algorithm. A cut-off point of 0.95 was determined by this program

A further test deals with T1, IL-11Rα (Homo sapiens, UniProt Q14626).
T1 sequence (Q14626 23-422): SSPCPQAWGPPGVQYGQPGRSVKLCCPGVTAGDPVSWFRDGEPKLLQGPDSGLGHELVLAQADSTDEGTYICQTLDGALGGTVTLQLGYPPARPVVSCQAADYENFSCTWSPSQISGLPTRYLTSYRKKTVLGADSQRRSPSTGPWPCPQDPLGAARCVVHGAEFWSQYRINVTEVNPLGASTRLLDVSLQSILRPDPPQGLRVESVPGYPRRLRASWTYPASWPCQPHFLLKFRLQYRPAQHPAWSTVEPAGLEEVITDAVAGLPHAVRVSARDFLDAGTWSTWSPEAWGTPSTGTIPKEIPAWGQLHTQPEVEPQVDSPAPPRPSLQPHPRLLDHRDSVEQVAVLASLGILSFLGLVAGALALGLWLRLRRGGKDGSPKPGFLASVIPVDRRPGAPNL
In words: Ligand-receptor binding assay in vitro with immobilized receptor. As for the experimental part:
Recombinant IL-11Rα vascular endothelial growth factor receptor-1 (VEGFR1) or leptin receptor (OB—R) were incubated with phage displaying the […] (SEQ ID NO:37) peptide. VEGFR1 was used as a representative vascular receptor, while OB—R was used because it shares a co-receptor with IL-11Rα. An unrelated phage clone displaying the peptide […] (SEQ ID NO:38) and insertless fd-tet phage were used as controls. […] Binding of […] (SEQ ID NO:37)-phage to IL-11Rα was specific, since it was inhibited by the native IL-11 ligand in a concentration-dependent manner (not shown). […] These observations with normal prostate tissues were followed by an examination of the expression of IL-11Rα in tumors, as discussed in the present Example.

A further test has as its system normal prostate. In words: Phage overlay assay on human tissue sections. It is filed as binding. An excerpt:
(§1) To test the tissue specificity of the IL-11 peptide mimic, a phage overlay assay was developed to evaluate receptor-ligand interactions in tissue sections, using the motif RRAGGS (SEQ ID NO:34) (Arap et al., Nature Med. 8:121-127, 2002).

Another test concerns skin. The experiment in a line: Phage overlay assay on human tissue sections. It is filed as binding.
Source text: as §1

A further test deals with adipose tissue. In words: Validation of adipose homing phage in vivo. Further details: species or system obese mice. The note with it: mouse. An excerpt:
A substractive phage display protocol (see Example 8 below) was used to isolate fat targeting peptides from a genetically obese mouse (Zhang et al., Nature, 372:425-432, 1994; Pelleymounter et al., Science 269:540-543, 1994). Phage that had been subjected to biopanning in obese mice were post-cleared in a normal mouse. The fat-targeting peptides isolated included TRNTGNI (SEQ ID NO:72), FDGQDRS (SEQ ID NO:73); WGPKRL (SEQ ID NO:74); WGESRL (SEQ ID NO:75); VMGSVTG (SEQ ID NO:76), KGGRAKD (SEQ ID NO:77), RGEVLWS (SEQ ID NO:78), TREVHRS (SEQ ID NO:79) and HGQGVRP (SEQ ID NO:80).
The fat homing clones selected were: FA—KGGRAKD (SEQ ID NO:77), FC—RGEVLWS (SEQ ID NO:78), FE—TREVHRS (SEQ ID NO:79) and FX—VMGSVTG (SEQ ID NO:76).

Entries after “also recorded” stand apart in the source; their conditions may differ.

On to `N.N.[Cl][Pt][Cl]` [cisplatin], for which the “reporter gene transduction relative to controls” value with MDA-MB-435 cells is recorded as “several fold higher”.

Turning to `CC[C@@]1(O)C(=O)OCc2c1cc1n(c2=O)Cc2cc3c(CN(C)C)c(O)ccc3nc2-1` [topotecan], in the test with MDA-MB-435 cells, the “reporter gene transduction relative to controls” value was “several fold higher”.

Regarding “AGG [tripeptide motif isolated from prostate]”, in the test on prostate, the “Motif Frequency” value worked out at 2.5.

As to CNVSDKSC, the “share of the clones analyzed” value in test [1] is 55%. Further, the positive serum reactivity is listed as 7% in test [2] (71 age-matched healthy men (control)), 76% in test [2] (metastatic androgen-independent prostate cancer), 6% in test [2] (organ-confined prostate cancer patients) and 29% in test [2] (patients with androgen-dependent tumors).

Turning to CRVDFSKGC [reference compound], the “phage binding to immobilized receptor” value on IL-11Rα (recombinant IL-11Rα) was “Neither of the control phage exhibited selective binding”.

Regarding “EGR [tripeptide motif isolated from prostate]”, in the test with prostate, the “Motif Frequency” value is given as 1.0.

With “GER [tripeptide motif isolated from prostate]”, in the test with prostate, the “Motif Frequency” value was 0.9.

Take “GVL [tripeptide motif isolated from prostate]”: the “Motif Frequency” value in the test with prostate stood at 2.3.

For “HGGVG [motif of a control phage that localized to skin tissue, reference compound]”, the results for the “phage binding to tissue section” value with normal prostate and in the test with skin were “did not bind to prostate tissue” and “specifically recognized blood vessels in the skin”, respectively.

Regarding KGGRAKD [FA], the “homing to adipose tissue compared to control fd-tet phage” value with adipose tissue was “some elevation of homing to adipose tissue”.

Take RGEVLWS [FC]: the “homing to adipose tissue compared to control fd-tet phage” value with adipose tissue was “some elevation of homing to adipose tissue”.

Consider “RRAGGS [prostate-targeting motif, IL-11 peptide mimic]”, for which, in the test on normal prostate, the “phage binding to tissue section” value is “specifically bound to the endothelium and epithelium of normal prostate”.

Consider TREVHRS [FE], for which the “homing to adipose tissue compared to control fd-tet phage” value with adipose tissue is reported as “some elevation of homing to adipose tissue”.

On to VMGSVTG [FX], for which the “homing to adipose tissue compared to control fd-tet phage” value in the test on adipose tissue is “some elevation of homing to adipose tissue; also recorded: several orders of magnitude higher adipose localization”.

B1: IL-11: native IL-11 ligand, cytokine (protein)
chain: PGPPPGPPRVSPDPRAELDSTVLLTRSLLADTRQLAAQLRDKFPADGDHNLDSLPTLAMSAGALGALQLPGVLTRLRADLLSYLRHVQWLRRAGGSSLKTLEPELGTLQARLDRLLRRLQLLMSRLALPQPPPDPPAPPLAPPSSAWGGIRAAHAILGGLHLTLDWAVRGLLLLKTRL
Consider B1, for which the “inhibition of CGRRAGGSC-phage binding to IL-11Rα” value with IL-11Rα (concentration of about 0.1 nM) is on record as approximately 100%.

The values above are taken from patent US8507445B2, “Compositions and methods of use of targeting peptides for diagnosis and therapy of human cancer” (Board of Regents, The University of Texas System, priority 2002, dated 2013).
